From US8802700B2 (Vertex Pharmaceuticals Incorporated, priority 2010, dated 2014)

Molecular target: T1, ΔF508-CFTR (Homo sapiens, UniProt P13569, DEL508-508)
T1 construct: expressed in transfected cells
Experiment: Membrane potential optical assay (FRET voltage-sensor dyes, VIPR), identification of potentiator compounds
Format: cell-based
Details: Table 3; assay not given
In short: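 Potentiator screen measured membrane potential via FRET between CC2-DMPE donor and DiSBAC2(3), read on VIPR II. Compound went in with the first addition of chloride-free gluconate bath; cells were ΔF508-CFTR-expressing NIH3T3 mouse fibroblasts, temperature-corrected at 27 °C for 24 h.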

T1 sequence (P13569 with tags, fused parts or gaps DEL508-508): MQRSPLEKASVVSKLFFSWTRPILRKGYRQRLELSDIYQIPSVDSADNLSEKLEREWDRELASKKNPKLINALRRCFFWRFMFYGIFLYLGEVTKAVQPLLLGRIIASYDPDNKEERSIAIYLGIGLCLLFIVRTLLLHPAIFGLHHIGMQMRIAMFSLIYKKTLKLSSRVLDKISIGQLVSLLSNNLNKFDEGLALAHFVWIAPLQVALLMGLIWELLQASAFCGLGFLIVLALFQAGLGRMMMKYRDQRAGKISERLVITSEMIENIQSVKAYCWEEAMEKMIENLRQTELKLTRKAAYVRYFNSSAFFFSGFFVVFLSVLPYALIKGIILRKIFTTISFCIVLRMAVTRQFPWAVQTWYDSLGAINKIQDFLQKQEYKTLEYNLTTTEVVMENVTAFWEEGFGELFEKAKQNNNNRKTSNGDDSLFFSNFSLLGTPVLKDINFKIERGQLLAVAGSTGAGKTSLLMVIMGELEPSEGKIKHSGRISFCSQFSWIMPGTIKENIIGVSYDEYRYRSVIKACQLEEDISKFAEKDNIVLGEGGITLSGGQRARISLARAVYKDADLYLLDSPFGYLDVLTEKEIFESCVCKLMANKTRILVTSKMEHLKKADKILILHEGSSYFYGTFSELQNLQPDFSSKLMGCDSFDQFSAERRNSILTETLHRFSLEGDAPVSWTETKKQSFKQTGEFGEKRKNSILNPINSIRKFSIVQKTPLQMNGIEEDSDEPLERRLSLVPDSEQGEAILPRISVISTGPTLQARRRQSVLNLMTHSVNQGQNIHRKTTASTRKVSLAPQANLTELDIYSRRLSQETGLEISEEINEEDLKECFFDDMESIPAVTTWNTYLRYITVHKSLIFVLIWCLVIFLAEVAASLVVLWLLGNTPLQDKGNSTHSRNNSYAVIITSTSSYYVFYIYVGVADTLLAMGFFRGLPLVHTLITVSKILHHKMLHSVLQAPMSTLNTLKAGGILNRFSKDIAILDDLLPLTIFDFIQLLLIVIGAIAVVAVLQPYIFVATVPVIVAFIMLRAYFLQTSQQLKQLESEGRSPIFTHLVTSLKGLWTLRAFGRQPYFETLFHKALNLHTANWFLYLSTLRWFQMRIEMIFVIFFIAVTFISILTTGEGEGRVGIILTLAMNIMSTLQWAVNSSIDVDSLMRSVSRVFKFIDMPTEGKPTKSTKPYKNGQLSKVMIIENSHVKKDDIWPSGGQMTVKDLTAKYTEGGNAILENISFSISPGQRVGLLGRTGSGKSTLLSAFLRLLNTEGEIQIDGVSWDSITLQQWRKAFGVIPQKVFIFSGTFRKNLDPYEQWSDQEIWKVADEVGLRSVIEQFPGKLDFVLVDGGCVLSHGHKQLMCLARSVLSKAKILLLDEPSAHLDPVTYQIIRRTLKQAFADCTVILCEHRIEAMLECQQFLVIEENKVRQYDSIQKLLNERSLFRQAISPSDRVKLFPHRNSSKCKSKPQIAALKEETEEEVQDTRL

EC50, < 10 µM:
CCc1cccc(C(C)C)c1NC(=O)c1c[nH]c2ccccc2c1=O [Compound 314, N-(2-ethyl-6-isopropyl-phenyl)-4-oxo-1H-quinoline-3-carboxamide]
COC(=O)c1cccc(-c2ccccc2NC(=O)c2c[nH]c3ccccc3c2=O)c1 [Compound 68, 3-[2-[(4-oxo-1H-quinolin-3-yl)carbonylamino]phenyl]benzoic acid methyl ester]

Same assay, conditions: Table 3; assay not given; read-out: % Activity (% Efficacy, relative efficacy)

Emax, > 100%:
O=C(Nc1ccc2c(C(F)(F)F)c[nH]c2c1)c1c[nH]c2ccccc2c1=O [Compound 545, 4-oxo-N-[3-(trifluoromethyl)-1H-indol-6-yl]-1H-quinoline-3-carboxamide]
COc1ccc(-c2ccccc2NC(=O)c2c[nH]c3ccccc3c2=O)cc1 [Compound 305, N-[2-(4-methoxyphenyl)phenyl]-4-oxo-1H-quinoline-3-carboxamide]

Emax, 25 to 100%:
O=C(Nc1ccc(N2CC[C@@H](O)C2)cc1C(F)(F)F)c1c[nH]c2ccccc2c1=O [Compound 705, (R)-N-(4-(3-hydroxypyrrolidin-1-yl)-2-(trifluoromethyl)phenyl)-4-oxo-1,4-dihydroquinoline-3-carboxamide]
Cc1ccccc1-c1ccccc1NC(=O)c1c[nH]c2ccccc2c1=O [Compound 199, N-[2-(o-tolyl)phenyl]-4-oxo-1H-quinoline-3-carboxamide]
CCCc1ccc(NC(=O)c2c[nH]c3ccccc3c2=O)cc1NS(C)(=O)=O [Compound 340, N-(3-methylsulfonylamino-4-propyl-phenyl)-4-oxo-1H-quinoline-3-carboxamide]
Cc1cccc2[nH]cc(C(=O)Nc3ccc(N4CC[C@@H](C)C4)cc3C(F)(F)F)c(=O)c12 [Compound 613, (R)-5-methyl-N-(4-(3-methylpyrrolidin-1-yl)-2-(trifluoromethyl)phenyl)-4-oxo-1,4-dihydroquinoline-3-carboxamide]
O=C(Nc1cc(O)c(C2CCCC2)cc1C#CCO)c1c[nH]c2ccccc2c1=O [Compound 512, N-[4-cyclopentyl-5-hydroxy-2-(3-hydroxyprop-1-ynyl)phenyl]-4-oxo-1H-quinoline-3-carboxamide]
O=C(Nc1ccc(Sc2ccccc2)cc1)c1c[nH]c2ccccc2c1=O [Compound 470, 4-oxo-N-(4-phenylsulfanylphenyl)-1H-quinoline-3-carboxamide]
O=C(Nc1ccc(C(F)(F)F)c(O)c1)c1c[nH]c2cccc(O)c2c1=O [Compound 700, 5-hydroxy-N-[3-hydroxy-4-(trifluoromethyl)phenyl]-4-oxo-1H-quinoline-3-carboxamide]
Nc1cc(NC(=O)c2c[nH]c3ccccc3c2=O)cc(C(F)(F)F)c1 [Compound 429, N-[3-amino-5-(trifluoromethyl)phenyl]-4-oxo-1H-quinoline-3-carboxamide]
COc1cc(NC(=O)c2c[nH]c3ccccc3c2=O)ccc1C(C)(C)C [Compound 2, N-(3-methoxy-4-tert-butyl-phenyl)-4-oxo-1H-quinoline-3-carboxamide]
Cc1ccc2[nH]cc(C(=O)Nc3ccc(N4[C@H](C)CC[C@H]4C)cc3C(F)(F)F)c(=O)c2c1 [Compound 569, N-(4-((2R,5R)-2,5-dimethylpyrrolidin-1-yl)-2-(trifluoromethyl)phenyl)-6-methyl-4-oxo-1,4-dihydroquinoline-3-carboxamide]
C[S+]([O-])c1ccc(-c2ccccc2NC(=O)c2c[nH]c3ccccc3c2=O)cc1 (stereo not shown) [Compound 134, N-[2-(4-methylsulfinylphenyl)phenyl]-4-oxo-1H-quinoline-3-carboxamide]
Cc1ccc(-c2ccccc2NC(=O)c2c[nH]c3ccccc3c2=O)o1 [Compound 311, N-[2-(5-methyl-2-furyl)phenyl]-4-oxo-1H-quinoline-3-carboxamide]
CC(C)(C)c1cc2ccc(NC(=O)c3c[nH]c4ccccc4c3=O)cc2[nH]1 [Compound 320, 4-oxo-N-(2-tert-butyl-1H-indol-6-yl)-1H-quinoline-3-carboxamide]
CCCc1ccc(NC)cc1NC(=O)c1c[nH]c2ccccc2c1=O [Compound 356, N-(5-methylamino-2-propyl-phenyl)-4-oxo-1H-quinoline-3-carboxamide]
O=C(Nc1ccc(S(=O)(=O)N2CCOCC2)cc1)c1c[nH]c2ccccc2c1=O [Compound 276, N-(4-morpholinosulfonylphenyl)-4-oxo-1H-quinoline-3-carboxamide]
Cc1ccc(C(F)(F)F)cc1NC(=O)c1c[nH]c2ccc(F)cc2c1=O [Compound 678, 6-fluoro-N-[2-methyl-5-(trifluoromethyl)phenyl]-4-oxo-1H-quinoline-3-carboxamide]
O=C(Nc1ccc(N2CCCC2)cc1C(F)(F)F)c1c[nH]c2ccc(F)cc2c1=O [Compound 562, 6-fluoro-4-oxo-N-[4-pyrrolidin-1-yl-2-(trifluoromethyl)phenyl]-1H-quinoline-3-carboxamide]
CCc1cccc(C(C)C)c1NC(=O)c1c[nH]c2ccccc2c1=O [Compound 314, N-(2-ethyl-6-isopropyl-phenyl)-4-oxo-1H-quinoline-3-carboxamide]
CCC(C)c1ccccc1NC(=O)c1c[nH]c2ccccc2c1=O (stereo not shown) [Compound 142, 4-oxo-N-(2-sec-butylphenyl)-1H-quinoline-3-carboxamide]
O=C(Nc1ccccc1-c1cccc(Cl)c1)c1c[nH]c2ccccc2c1=O [Compound 307, N-[2-(3-chlorophenyl)phenyl]-4-oxo-1H-quinoline-3-carboxamide]
CC(C)(C)c1cc(C(C)(C)C)c(NC(=O)c2c[nH]c3cc(OC(F)(F)F)ccc3c2=O)cc1O [Compound 694, N-(5-hydroxy-2,4-ditert-butyl-phenyl)-4-oxo-7-(trifluoromethoxy)-1H-quinoline-3-carboxamide]
CC1(C)CCN(c2ccc(NC(=O)c3c[nH]c4ccccc4c3=O)c(C(F)(F)F)c2)C1 [Compound 536, N-[4-(3,3-dimethylpyrrolidin-1-yl)-2-(trifluoromethyl)phenyl]-4-oxo-1H-quinoline-3-carboxamide]
O=C(Nc1ccccc1C(F)(F)F)c1c[nH]c2ccccc2c1=O [Compound 111, 4-oxo-N-[2-(trifluoromethyl)phenyl]-1H-quinoline-3-carboxamide]
CCCCCc1ccc(NC(=O)c2c[nH]c3ccccc3c2=O)cc1 [Compound 99, 4-oxo-N-(4-pentylphenyl)-1H-quinoline-3-carboxamide]
O=C(Nc1cc(NS(=O)(=O)CCN2CCOCC2)cc(C(F)(F)F)c1)c1c[nH]c2ccccc2c1=O [Compound 272, N-[3-(2-morpholinoethylsulfonylamino)-5-(trifluoromethyl)phenyl]-4-oxo-1H-quinoline-3-carboxamide]
CC1(c2cc(F)c(NC(=O)c3c[nH]c4ccc(F)cc4c3=O)cc2O)CCCCC1 [Compound 218, 6-fluoro-N-[2-fluoro-5-hydroxy-4-(1-methylcyclohexyl)-phenyl]-4-oxo-1H-quinoline-3-carboxamide]
Cc1cccc2[nH]cc(C(=O)Nc3ccc(OC(C)C)c(O)c3)c(=O)c12 [Compound 701, N-(3-hydroxy-4-isopropoxy-phenyl)-5-methyl-4-oxo-1H-quinoline-3-carboxamide]
CC(C)(C)COC(=O)NCC(C)(C)c1ccc(NC(=O)c2c[nH]c3ccccc3c2=O)cc1 [Compound 341, [2-methyl-2-[4-[(4-oxo-1H-quinolin-3-yl)carbonylamino]phenyl]-propyl]aminoformic acid neopentyl ester]
CC(C)(C)OC(=O)N1CCc2ccc(NC(=O)c3c[nH]c4ccccc4c3=O)cc2C1 [Compound 107, 7-[(4-oxo-1H-quinolin-3-yl)carbonylamino]-1,2,3,4-tetrahydroisoquinoline-2-carboxylic acid tert-butyl ester]
CCCOC(=O)NCC(C)(C)c1ccc(NC(=O)c2c[nH]c3ccccc3c2=O)cc1 [Compound 416, [2-methyl-2-[4-[(4-oxo-1H-quinolin-3-yl)carbonylamino]phenyl]-propyl]aminoformic acid propyl ester]
O=C(Nc1ccccc1Oc1ncc(C(F)(F)F)cc1Cl)c1c[nH]c2ccccc2c1=O [Compound 42, N-[2-[[3-chloro-5-(trifluoromethyl)-2-pyridyl]oxy]phenyl]-4-oxo-1H-quinoline-3-carboxamide]
CN(C)c1ccc2[nH]cc(C(=O)Nc3cc(O)c(C(C)(C)C)cc3C(C)(C)C)c(=O)c2c1 [Compound 544, 6-dimethylamino-N-(5-hydroxy-2,4-ditert-butyl-phenyl)-4-oxo-1H-quinoline-3-carboxamide]
COC(=O)c1cccc(-c2ccccc2NC(=O)c2c[nH]c3ccccc3c2=O)c1 [Compound 68, 3-[2-[(4-oxo-1H-quinolin-3-yl)carbonylamino]phenyl]benzoic acid methyl ester]
COc1ccccc1NC(=O)c1c[nH]c2ccccc2c1=O [Compound 80, N-(2-methoxyphenyl)-4-oxo-1H-quinoline-3-carboxamide]
C[C@H]1CCCN1c1ccc(NC(=O)c2c[nH]c3cccc(C(F)(F)F)c3c2=O)c(C(F)(F)F)c1 [Compound 669, (S)-N-(4-(2-methylpyrrolidin-1-yl)-2-(trifluoromethyl)phenyl)-4-oxo-5-(trifluoromethyl)-1,4-dihydroquinoline-3-carboxamide]

Emax, < 25%:
O=C(Nc1ccc2nccnc2c1)c1c[nH]c2ccccc2c1=O [Compound 443, 4-oxo-N-quinoxalin-6-yl-1H-quinoline-3-carboxamide]
CC(=O)N1CCc2ccc(NC(=O)c3c[nH]c4ccccc4c3=O)cc21 [Compound 233, N-(1-acetylindolin-6-yl)-4-oxo-1H-quinoline-3-carboxamide]
O=C(Nc1cc2ccccc2cn1)c1c[nH]c2ccccc2c1=O [Compound 309, N-(3-isoquinolyl)-4-oxo-1H-quinoline-3-carboxamide]
NS(=O)(=O)c1cccc(NC(=O)c2c[nH]c3ccccc3c2=O)c1 [Compound 9, 4-oxo-N-(3-sulfamoylphenyl)-1H-quinoline-3-carboxamide]
